Measured values reported in ChEMBL document CHEMBL1150583, “New isoflavone and triterpene glycosides from soybeans” (2002).
In brackets after ≈: the same amount, converted by molar mass.

Experiments:
Assay type in all cases: functional
[1] = Cytotoxicity against human LNCaP-FGC cells after 6 days by MTT assay; details: LNCaP-Clone-FGC, 144 h, read-out: ED50 (the source's name)
[2] = Cytotoxicity against human Hs 578T cells after 6 days by MTT assay; details: 144 h, read-out: ED50 (the source's name)
[3] = Cytotoxicity against human Hs 746T cells after 6 days by MTT assay; details: Hs746T, 144 h, read-out: ED50 (the source's name)
[4] = Cytotoxicity against human Hs 740.T cells after 6 days by MTT assay; details: 144 h, read-out: ED50 (the source's name)
[5] = Cytotoxicity against human Hs 742.T cells after 6 days by MTT assay; details: 144 h, read-out: ED50 (the source's name)
[6] = system: DU-145; assay: Cytotoxicity against human DU145 cells after 6 days by MTT assay; details: DU-145, 144 h, read-out: ED50 (the source's name)

SMILES | EC50 [1] [µg/mL] | EC50 [2] [µg/mL] | EC50 [3] [µg/mL] | EC50 [4] [µg/mL] | EC50 [5] [µg/mL] | EC50 [6] [µg/mL]
COc1ccc(-c2coc3cc(O[C@@H]4O[C@H](COC(C)=O)[C@@H](O)[C@H](O)[C@H]4OC(C)=O)ccc3c2=O)cc1 | 22.1 (≈ 43 µM) | 5.44 (≈ 10.6 µM) | 8.89 (≈ 17.3 µM) | 7.61 (≈ 14.8 µM) | 25.5 (≈ 49.6 µM) | 4.18 (≈ 8.12 µM)
O=c1c(-c2ccc(O)cc2)coc2cc(O)cc(O)c12 [GENISTEIN] | 25.4 (≈ 94.2 µM) | 3.5 (≈ 13 µM) | 5.82 (≈ 21.5 µM) | 4.38 (≈ 16.2 µM) | 14.9 (≈ 55.1 µM) | 2.39 (≈ 8.84 µM)
O=C1c2ccc(O[C@@H]3O[C@H](CO)[C@@H](O)[C@H](O)[C@H]3O)cc2OCC1c1ccc(O)cc1 (stereo partly drawn) [DIHYDRODAIDZIN] | 32.5 (≈ 77.6 µM) | 28.2 (≈ 67.5 µM) | 14.9 (≈ 35.7 µM) | 17.4 (≈ 41.5 µM) | 33.6 (≈ 80.2 µM) | 9.16 (≈ 21.9 µM)
O=C1c2c(O)cc(O[C@@H]3O[C@H](CO)[C@@H](O)[C@H](O)[C@H]3O)cc2OCC1c1ccc(O)cc1 (stereo partly drawn) [DIHYDROGENISTIN] | 41.6 (≈ 95.7 µM) | 15.4 (≈ 35.4 µM) | 12.2 (≈ 28.2 µM) | 15.1 (≈ 34.8 µM) | 30.8 (≈ 70.9 µM) | 10.2 (≈ 23.6 µM)
CC1(C)C[C@@H](O)[C@]2(C)CC[C@]3(C)C(=CC[C@@H]4[C@@]5(C)CC[C@H](O[C@@H]6O[C@H](C(=O)O)[C@@H](O)[C@H](O)[C@H]6O[C@@H]6O[C@H](CO)[C@H](O)[C@H](O)[C@H]6O[C@@H]6O[C@H](CO)[C@@H](O)[C@H](O)[C@H]6O)[C@@](C)(CO)[C@@H]5CC[C@]43C)[C@@H]2C1 [3-O-[BETA-DGLUCOPYRANOSYL-(1->2)-BETA-D-GALACTOPYRANOSYL(1->2)-BETA-DGLUCURONOPYRANOSYL]SOYASAPOGENOL B] | 40.7 (≈ 42.4 µM) | 9.87 (≈ 10.3 µM) | 7.36 (≈ 7.67 µM) | 8.97 (≈ 9.35 µM) | 31.6 (≈ 32.9 µM) | 5.75 (≈ 5.99 µM)
CC1(C)C[C@@H](O)[C@]2(C)CC[C@]3(C)C(=CC[C@@H]4[C@@]5(C)CC[C@H](O[C@@H]6O[C@H](C(=O)O)[C@@H](O)[C@H](O)[C@H]6O)[C@@](C)(CO)[C@@H]5CC[C@]43C)[C@@H]2C1 [3-O-[BETA-D-GLUCURONOPYRANOSYL]SOYASAPOGENOL B] | 37.3 (≈ 58.7 µM) | 8.77 (≈ 13.8 µM) | 9.59 (≈ 15.1 µM) | 9.61 (≈ 15.1 µM) | 28.7 (≈ 45.2 µM) | 9.13 (≈ 14.4 µM)
C[C@@H]1O[C@@H](O[C@H]2[C@H](O[C@@H]3CC(C)(C)C[C@H]4C5=CC[C@@H]6[C@@]7(C)CC[C@H](O[C@@H]8O[C@H](C(=O)O)[C@@H](O)[C@H](O)[C@H]8O[C@@H]8O[C@H](CO)[C@H](O)[C@H](O)[C@H]8O[C@@H]8O[C@@H](C)[C@H](O)[C@@H](O)[C@H]8O)[C@@](C)(CO)[C@@H]7CC[C@@]6(C)[C@]5(C)CC[C@@]34C)OC[C@H](O)[C@@H]2O)[C@H](O)[C@H](O)[C@H]1O | 27.5 (≈ 22.5 µM) | 2.39 (≈ 1.96 µM) | 2.47 (≈ 2.02 µM) | 3.53 (≈ 2.89 µM) | 17.5 (≈ 14.3 µM) | 3.12 (≈ 2.55 µM)
C[C@@H]1O[C@@H](O[C@H]2[C@H](O[C@H]3[C@H](O[C@H]4CC[C@@]5(C)[C@@H](CC[C@]6(C)[C@@H]5CC=C5[C@@H]7CC(C)(C)C[C@@H](O[C@@H]8O[C@H](CO)[C@@H](O)[C@H](O)[C@H]8O[C@@H]8O[C@@H](C)[C@H](O)[C@@H](O)[C@H]8O)[C@]7(C)CC[C@]56C)[C@]4(C)CO)O[C@H](C(=O)O)[C@@H](O)[C@@H]3O)O[C@H](CO)[C@H](O)[C@@H]2O)[C@H](O)[C@H](O)[C@H]1O | 24.1 (≈ 19.3 µM) | 2.12 (≈ 1.69 µM) | 3.94 (≈ 3.15 µM) | 4.1 (≈ 3.28 µM) | 14.6 (≈ 11.7 µM) | 3.25 (≈ 2.6 µM)
